# Assay results taken from publication PMC3983056 (PLoS Pathogens, 2014).
# Values joined by “and” are separate entries in the source; they are usually repeats but may differ in a detail not shown here. Identical values can stand only once. Like-named read-outs stand apart in the source and are kept apart here.
# Tests used:
# [1] = tested on: resting CD4 T cells from cART-suppressed HIV-infected patients; assay: Cell activation analysis by flow cytometry, isolated resting CD4 T cells; assay type: cell-based, human; details: 4-hour pulse RMD
# Procedure: For cell activation analysis, either complete PBMC cultures or resting CD4+ T cells isolated from HIV-infected cART-suppressed patients were incubated with the tested agents under specified conditions and were stained with relevant antibodies. All antibodies were purchased from BD Biosciences and included Alexa Fluor 700-labeled antibody to CD4, APC-H7-labeled antibody to CD8, PE-Cy7 -labeled antibody to CD19, PE-labeled antibody to CD69, APC-labeled antibody to CD25, and V450-labeled antibody to HLA-DR. Live cells were gated by forward and side scatter and exclusion of the dead cells by Live/Dead Fixable Aqua Stain (Invitrogen). Marker staining was assessed by flow cytometry analysis on a LSR Fortessa with data processing using FlowJo software.
# The surface expression of CD25 and CD69 in viable CD4 cells was analyzed by flow cytometry. Data are mean ± SD of two independent experiments performed with cells isolated from two HIV-infected patients on suppressive cART.
# [2] = Compound-associated cytotoxicity in latently infected cells (Cell Titer Glo); assay type: cell-based, human; details: human, latently infected (NL4.3-Luc) primary CD4+ T cells, continuous 48 hours, 50% cell viability reduction, three donors, mean ± SD
# Procedure: (§1) Total peripheral blood mononuclear cells (PBMCs) were obtained from healthy HIV-negative donors by leukapheresis (AllCells, Inc, Emeryville, CA). Naive CD4+ T cells were purified by negative selection using EasySep magnetic beads (StemCells, Inc, Vancouver, Canada) and cultured in RPMI with 10% fetal bovine serum (FBS), penicillin/streptomycin, 1% nonessential amino acids (Life Technologies, Carlsbad, CA), 1% sodium pyruvate (Life Technologies) and 495 nM beta-mercaptoethanol (Sigma Aldrich, St. Louis, MO) in a 37°C, 5% CO2 incubator. Purified naive CD4+ T cells were activated by incubation with anti-CD3/CD28 magnetic Dynabeads (1 bead: 2 cells ratio, Life Technologies), 1 µg/ml anti-IL-4 (R&D Systems, Minneapolis, MN), 2 µg/ml anti-IL-12p70 antibodies (R&D Systems), and 10 ng/ml TGF-β (R&D Systems) for 3 days, [59]. Following the removal of anti-CD3/CD28 beads and antibodies, cells were maintained in 30 U/ml IL-2 (Life Technologies) for 2 days. Cells were then infected with NL4.3-Luc in the presence of 50 µg/ml DEAE for 3 hours. Cells were maintained in the continued presence of 30 U/ml IL-2 throughout the infection and subsequent rest period with culture medium with fresh IL-2 replaced every 2–3 days. Seven days post-infection, 20 µl of latently infected cells were dispensed into 384 well plates using a MicroFlo dispenser (Biotek Insturments, VT) at 10,000 cells/well containing 100 nl of compound solutions delivered by the Echo acoustic-based liquid dispenser (Labcyte, Sunnyvale, CA). After a 48-hour incubation, 16 µl/well BriteGlo (Promega, Madison, WI) was added and luminescence measured using the Envision plate reader (Perkin Elmer, Waltham, MA). Compound-associated cytotoxicity was determined in latently infected cells in parallel with the virus activation assay. Cells were incubated with compounds for 48 hours at 37°C, and cell viability was determined using Cell Titer Glo reagent (Promega).
# [3] = tested on: latently infected primary CD4 T cells; assay: as above; assay type: cell-based, human; details: continuous 48 hours, 50% cell viability reduction, three donors, mean ± SD
# Procedure: as §1
# [4] = human, in vivo; cited from earlier work
# [5] = Human serum binding by equilibrium dialysis, HPLC/mass spectrometry; assay type: in vitro ADME; details: read-out: Human serum binding (free fraction)
# Text: (DOCX) Click here for additional data file.
# [6] = tested on: total class I and II HDAC enzyme activity in resting CD4 T cells; details: pulse RMD 4 hours, VOR 24 hours, PNB 24 hours, 6 to 48 hours
# Procedure: Resting CD4 T cells obtained from HIV-infected patients on suppressive cART were incubated with serial dilutions of HDACi in 96-well plates at 10,000 cells/well for indicated time and then lysed by repeated freezing and thawing. Total cellular HDAC activity was measured using the HDAC-Glo I/II assay kit (Promega) according to the manufacturer's protocol.
# human HDAC-5 = molecular target: T1, human HDAC-5 (Homo sapiens, UniProt Q9UQL6); assay: HDAC inhibition assay; assay type: biochemical
# T1 construct: purchased Reaction Biology Corporation (Malvern, PA)
# T1 sequence (Q9UQL6 whole entry): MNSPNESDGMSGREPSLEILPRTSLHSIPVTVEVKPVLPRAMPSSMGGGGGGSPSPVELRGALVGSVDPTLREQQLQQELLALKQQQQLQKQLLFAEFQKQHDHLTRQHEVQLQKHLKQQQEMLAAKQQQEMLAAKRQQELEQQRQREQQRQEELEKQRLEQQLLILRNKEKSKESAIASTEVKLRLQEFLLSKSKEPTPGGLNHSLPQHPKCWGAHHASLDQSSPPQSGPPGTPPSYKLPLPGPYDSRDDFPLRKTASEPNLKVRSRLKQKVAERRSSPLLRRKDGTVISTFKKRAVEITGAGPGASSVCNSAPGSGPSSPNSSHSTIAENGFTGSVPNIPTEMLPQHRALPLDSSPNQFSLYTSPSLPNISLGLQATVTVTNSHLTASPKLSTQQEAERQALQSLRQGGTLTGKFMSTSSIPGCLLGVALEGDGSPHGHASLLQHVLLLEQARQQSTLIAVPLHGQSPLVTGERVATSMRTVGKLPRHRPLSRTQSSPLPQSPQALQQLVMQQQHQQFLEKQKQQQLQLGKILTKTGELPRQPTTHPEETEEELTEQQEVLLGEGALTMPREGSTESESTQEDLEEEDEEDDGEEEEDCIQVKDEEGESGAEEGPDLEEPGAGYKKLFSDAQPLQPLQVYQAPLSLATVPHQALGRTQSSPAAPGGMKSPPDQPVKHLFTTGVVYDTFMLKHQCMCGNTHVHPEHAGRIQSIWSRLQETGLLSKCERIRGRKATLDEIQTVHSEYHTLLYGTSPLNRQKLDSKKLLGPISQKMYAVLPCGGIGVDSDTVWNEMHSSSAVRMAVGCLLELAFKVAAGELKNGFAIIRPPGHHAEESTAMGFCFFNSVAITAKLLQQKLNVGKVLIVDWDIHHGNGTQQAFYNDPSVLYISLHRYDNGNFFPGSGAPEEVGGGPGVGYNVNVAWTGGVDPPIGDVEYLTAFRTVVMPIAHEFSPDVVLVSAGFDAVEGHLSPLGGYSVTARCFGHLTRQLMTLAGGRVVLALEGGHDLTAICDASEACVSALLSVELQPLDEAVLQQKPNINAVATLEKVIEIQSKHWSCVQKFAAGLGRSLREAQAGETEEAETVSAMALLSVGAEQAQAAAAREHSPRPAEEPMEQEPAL
# Procedure: (§2) Determination of HDACi potency against individual HDAC enzymes was performed at Reaction Biology Corporation (Malvern, PA). In brief, human HDAC-1 to -11 enzymes were incubated with serial dilutions of HDACi and fluorogenic peptide substrates (50 µM) in a 96-well format assay. […] Fluorogenic peptide Boc-Lys(trifluoroacetyl)-AMC was used as a substrate for HDAC enzymes 4, 5, 7, and 9.
# [7] = tested on: latent HIV in resting CD4 T cells from HIV-infected patients on suppressive cART; assay type: cell-based; details: for HIV RNA avg: 40 nM RMD, one value per donor; for HIV RNA [copies/mil cells] avg: Figure 5
# Procedure: To examine the kinetics of HIV induction, we analyzed cell-associated viral RNA levels at 6, 12, 24, and 48 hours after treatment initiation.
# Lysates were filtered through a Qiashredder (Qiagen).
# [8] = tested on: memory CD4 cells from HIV-infected patients; assay: Viability of primary memory CD4 cells (Cell TiterGlo, 6 days); assay type: cell-based, human; details: memory CD4 cells, tested RMD concentrations (5 and 20 nM, 4 hours), day 6
# Procedure: Cell viability was determined using a Cell TiterGlo reagent 6 days after the initiation of treatment and is expressed as a percentage of cell viability relative to control vehicle-treated memory CD4 cells from the same donors. The data represent mean +/− S.D. from three independent donors. (TIF) Click here for additional data file.
# [9] = tested on: latent HIV in resting CD4 T cells from HIV-infected patients on suppressive cART; assay: Ex vivo release of extracellular HIV RNA into culture supernatants, resting CD4 T cells; assay type: cell-based
# Procedure: HIV-infected patients participating in the study were selected based on sustained plasma viral load suppression (<50 copies/ml for >12 months), CD4 counts (>350 cells/µL), and absence of co-infection with hepatitis B or C virus (Supplementary Table S1). Clinical laboratory results were reconfirmed 2 weeks before leukapheresis or blood draw. Leukapheresis was conducted for 3–4 hours, and samples were processed within 2 hours after collection. The leukapheresis product was diluted 1∶1 with PBS and layered over Ficoll for isolation of PBMCs. […] Resting CD4 T cells were isolated by first enriching total CD4 T cells (StemCell Technologies) and subsequently depleting HLA-DR-, CD25-, and CD69-positive cells via negative selection (Miltenyi Biotec, Auburn, CA).
# To assess HIV activation by HDACi, up to 5 million CD4 T cells were plated in 24-well plates in 2.5 ml of media, supplemented with antiretrovirals (ARVs) (100 nM elvitegravir and 100–300 nM efavirenz) for the entire duration of culture incubation. HDACi were added at specified concentrations on day 0 and cells or culture supernatants were harvested for the analysis of HIV RNA at the indicated time points (6–48 hours or 6–7 days, respectively). For HDACi pulse treatment, cultures were washed twice using ARV-containing media at 4 or 24 hours after addition of HDACi and incubated with ARVs until harvest. To measure HIV RNA levels, 1 ml of culture supernatant was analyzed by a robotic COBAS AmpliPrep/TaqMan system (Roche Diagnostics, Indianapolis, IN), which extracts total nucleic acid and quantifies HIV RNA in copies per milliliter using the HIV-1 Test, v2.0 kit (Roche Diagnostics). For the measurement of cell-associated HIV RNA levels, cells were washed with PBS, counted, and lysed (Qiagen RLT buffer, 400 µl for every 2 million cells; Qiagen, Venlo, Netherlands). Lysates were filtered through a Qiashredder (Qiagen). Total RNA was prepared from the lysates (400 µl) using a robotic system (QIAsymphony, Qiagen) that incorporates a DNase I digestion step to eliminate cellular DNA. The resulting total RNA was eluted with 200 µl of buffer, diluted to 1 ml with nuclease-free water, and analyzed by COBAS using the HIV-1 Test v2.0 kit. Preparations of both cell-associated RNA and supernatant total nucleic acids were tested for potential contamination with HIV DNA and/or host DNA by performing the PCR amplification in the presence and absence of reverse transcriptase and by a detection of GAPDH-encoding host DNA sequence.
# HIV RNA-induction experiments were conducted using 5 to 6 replicates for every experimental condition, including vehicle-treated controls. Fold induction in HIV RNA levels was calculated as a ratio of mean signals from compound-treated and vehicle (DMSO)-treated control samples from the same donor under identical conditions. […] For experiments using blood-derived resting CD4 T cells, culture supernatants from 3 replicate wells were combined and analyzed using the COBAS system.
# human HDAC-11 = molecular target: T2, human HDAC-11 (Homo sapiens, UniProt Q96DB2); assay: HDAC inhibition assay; assay type: biochemical
# T2 construct: purchased Reaction Biology Corporation (Malvern, PA)
# T2 sequence (Q96DB2 whole entry): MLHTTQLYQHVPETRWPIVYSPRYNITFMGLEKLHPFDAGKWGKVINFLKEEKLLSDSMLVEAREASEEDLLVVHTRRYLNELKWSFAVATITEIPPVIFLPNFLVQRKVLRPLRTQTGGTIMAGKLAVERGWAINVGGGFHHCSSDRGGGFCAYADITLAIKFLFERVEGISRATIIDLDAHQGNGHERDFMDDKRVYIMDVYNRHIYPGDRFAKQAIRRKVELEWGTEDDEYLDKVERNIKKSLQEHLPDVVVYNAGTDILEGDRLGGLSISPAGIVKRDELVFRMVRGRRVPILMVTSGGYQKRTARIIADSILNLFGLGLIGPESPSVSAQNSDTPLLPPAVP
# Procedure: as §2
# human HDAC-7 = molecular target: T3, human HDAC-7 (Homo sapiens, UniProt Q8WUI4); assay: HDAC inhibition assay; assay type: biochemical
# T3 construct: purchased Reaction Biology Corporation (Malvern, PA)
# T3 sequence (Q8WUI4 whole entry): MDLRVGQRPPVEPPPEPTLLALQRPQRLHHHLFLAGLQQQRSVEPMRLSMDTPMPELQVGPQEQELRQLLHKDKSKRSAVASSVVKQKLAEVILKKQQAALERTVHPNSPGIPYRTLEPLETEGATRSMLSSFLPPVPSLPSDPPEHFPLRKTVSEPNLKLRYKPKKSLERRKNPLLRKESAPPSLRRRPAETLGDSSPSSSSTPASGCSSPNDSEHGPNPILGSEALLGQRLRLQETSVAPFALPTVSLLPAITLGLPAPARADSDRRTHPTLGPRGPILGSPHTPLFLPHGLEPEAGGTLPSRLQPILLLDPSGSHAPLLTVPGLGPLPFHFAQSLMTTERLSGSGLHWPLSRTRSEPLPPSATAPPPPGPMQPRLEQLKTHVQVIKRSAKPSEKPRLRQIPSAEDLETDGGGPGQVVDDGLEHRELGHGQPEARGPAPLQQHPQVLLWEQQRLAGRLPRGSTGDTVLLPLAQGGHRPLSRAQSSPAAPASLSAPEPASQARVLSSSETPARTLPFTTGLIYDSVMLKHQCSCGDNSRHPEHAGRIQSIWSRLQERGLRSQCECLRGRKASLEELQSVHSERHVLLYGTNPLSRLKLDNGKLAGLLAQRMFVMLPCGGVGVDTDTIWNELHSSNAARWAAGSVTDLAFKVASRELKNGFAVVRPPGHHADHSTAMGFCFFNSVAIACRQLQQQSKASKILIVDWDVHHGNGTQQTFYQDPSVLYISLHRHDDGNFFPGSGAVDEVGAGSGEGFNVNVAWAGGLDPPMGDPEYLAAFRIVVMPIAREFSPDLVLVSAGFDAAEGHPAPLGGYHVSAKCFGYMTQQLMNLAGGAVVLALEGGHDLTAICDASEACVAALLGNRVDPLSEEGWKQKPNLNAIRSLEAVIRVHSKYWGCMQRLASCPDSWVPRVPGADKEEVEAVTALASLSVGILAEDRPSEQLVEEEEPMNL
# Procedure: as §2
compound,measurement,setting,value
"C/C=C1\NC(=O)[C@H]2CSSCC/C=C/[C@H](CC(=O)N[C@H](C(C)C)C(=O)N2)OC(=O)[C@H](C(C)C)NC1=O [RMD, romidepsin]",fraction of CD69-positive cells,[1],minimal increases
same,CC50 at 48 h,[2],100 nM
same,CC50,[3],107 ± 126 nM
same,most common adverse reactions,[4],"thrombocytopenia, neutropenia, lymphopenia, nausea, and fatigue"
same,fraction unbound,[5],0.08
same,persistence of inhibition of cell-associated HDAC activity,[6],persisted throughout the 48-hour incubation period
same,IC50,human HDAC-5,1160 nM
same,HIV RNA avg,"[7]; Figure 2B, 6hr",9642 copies/mil cells and 324 copies/mil cells and 14747 copies/mil cells and 6687 copies/mil cells and 2352 copies/mil cells
same,HIV RNA avg,"[7]; Figure 2B, 12hr",6663 copies/mil cells and 352 copies/mil cells and 13013 copies/mil cells and 9057 copies/mil cells and 2763 copies/mil cells
same,HIV RNA avg,"[7]; Figure 2B, 24hr",8902 copies/mil cells and 542 copies/mil cells and 17191 copies/mil cells and 14960 copies/mil cells and 4744 copies/mil cells
same,HIV RNA avg,"[7]; Figure 2B, 48hr",3882 copies/mil cells and 831 copies/mil cells and 21497 copies/mil cells and 14409 copies/mil cells and 7107 copies/mil cells
same,HIV RNA avg,"[7]; Figure 4, 6 hours",6481 copies/mil cells and 2385 copies/mil cells
same,HIV RNA avg,"[7]; Figure 4, 24 hours",15888 copies/mil cells and 7188 copies/mil cells
same,HIV RNA avg,"[7]; Figure 4, 48 hours",8834 copies/mil cells and 9481 copies/mil cells
same,HIV RNA [copies/mil cells] avg,"[7]; 3.5 nM RMD, 6 hours, donor 6",4270 copies/mil cells
same,HIV RNA [copies/mil cells] avg,"[7]; 3.5 nM RMD, 6 hours, donor 7",3321 copies/mil cells
same,HIV RNA [copies/mil cells] avg,"[7]; 3.5 nM RMD, 6 hours, donor 8",816 copies/mil cells
same,HIV RNA [copies/mil cells] avg,"[7]; 3.5 nM RMD, 12 hours, donor 6",3943 copies/mil cells
same,HIV RNA [copies/mil cells] avg,"[7]; 3.5 nM RMD, 12 hours, donor 7",2314 copies/mil cells
same,HIV RNA [copies/mil cells] avg,"[7]; 3.5 nM RMD, 12 hours, donor 8",526 copies/mil cells
same,HIV RNA [copies/mil cells] avg,"[7]; 3.5 nM RMD, 24 hours, donor 6",4673 copies/mil cells
same,HIV RNA [copies/mil cells] avg,"[7]; 3.5 nM RMD, 24 hours, donor 7",2633 copies/mil cells
same,HIV RNA [copies/mil cells] avg,"[7]; 3.5 nM RMD, 24 hours, donor 8",586 copies/mil cells
same,HIV RNA [copies/mil cells] avg,"[7]; 3.5 nM RMD, 48 hours, donor 6",3640 copies/mil cells
same,HIV RNA [copies/mil cells] avg,"[7]; 3.5 nM RMD, 48 hours, donor 7",4009 copies/mil cells
same,HIV RNA [copies/mil cells] avg,"[7]; 3.5 nM RMD, 48 hours, donor 8",769 copies/mil cells
same,HIV RNA [copies/mil cells] avg,"[7]; 15 nM RMD, 6 hours, donor 6",9276 copies/mil cells
same,HIV RNA [copies/mil cells] avg,"[7]; 15 nM RMD, 6 hours, donor 7",5400 copies/mil cells
same,HIV RNA [copies/mil cells] avg,"[7]; 15 nM RMD, 6 hours, donor 8",2254 copies/mil cells
same,HIV RNA [copies/mil cells] avg,"[7]; 15 nM RMD, 12 hours, donor 6",15172 copies/mil cells
same,HIV RNA [copies/mil cells] avg,"[7]; 15 nM RMD, 12 hours, donor 7",4260 copies/mil cells
same,HIV RNA [copies/mil cells] avg,"[7]; 15 nM RMD, 12 hours, donor 8",1826 copies/mil cells
same,HIV RNA [copies/mil cells] avg,"[7]; 15 nM RMD, 24 hours, donor 6",24438 copies/mil cells
same,HIV RNA [copies/mil cells] avg,"[7]; 15 nM RMD, 24 hours, donor 7",9787 copies/mil cells
same,HIV RNA [copies/mil cells] avg,"[7]; 15 nM RMD, 24 hours, donor 8",4270 copies/mil cells
same,HIV RNA [copies/mil cells] avg,"[7]; 15 nM RMD, 48 hours, donor 6",19207 copies/mil cells
same,HIV RNA [copies/mil cells] avg,"[7]; 15 nM RMD, 48 hours, donor 7",13754 copies/mil cells
same,HIV RNA [copies/mil cells] avg,"[7]; 15 nM RMD, 48 hours, donor 8",3470 copies/mil cells
same,HIV RNA [copies/mil cells] avg,"[7]; 45 nM RMD, 6 hours, donor 6",14747 copies/mil cells
same,HIV RNA [copies/mil cells] avg,"[7]; 45 nM RMD, 6 hours, donor 7",6687 copies/mil cells
same,HIV RNA [copies/mil cells] avg,"[7]; 45 nM RMD, 6 hours, donor 8",2352 copies/mil cells
same,HIV RNA [copies/mil cells] avg,"[7]; 45 nM RMD, 12 hours, donor 6",13013 copies/mil cells
same,HIV RNA [copies/mil cells] avg,"[7]; 45 nM RMD, 12 hours, donor 7",9057 copies/mil cells
same,HIV RNA [copies/mil cells] avg,"[7]; 45 nM RMD, 12 hours, donor 8",2763 copies/mil cells
same,HIV RNA [copies/mil cells] avg,"[7]; 45 nM RMD, 24 hours, donor 6",17191 copies/mil cells
same,HIV RNA [copies/mil cells] avg,"[7]; 45 nM RMD, 24 hours, donor 7",14960 copies/mil cells
same,HIV RNA [copies/mil cells] avg,"[7]; 45 nM RMD, 24 hours, donor 8",4744 copies/mil cells
same,HIV RNA [copies/mil cells] avg,"[7]; 45 nM RMD, 48 hours, donor 6",21497 copies/mil cells
same,HIV RNA [copies/mil cells] avg,"[7]; 45 nM RMD, 48 hours, donor 7",14409 copies/mil cells
same,HIV RNA [copies/mil cells] avg,"[7]; 45 nM RMD, 48 hours, donor 8",7107 copies/mil cells
same,induction of HIV transcription,"[7]; resting CD4 T cells, 3.5 nM RMD for 4 hours",minimal induction
same,increase in intracellular HIV RNA levels versus vehicle,"[7]; resting CD4 T cells, 40 nM RMD for 4 hours, peak between 24 and 48 hours",6 fold
same,persistence of intracellular HIV RNA induction,"[7]; resting CD4 T cells, pulse RMD 4 hours, VOR 24 hours, PNB 24 hours, 6 to 48 hours",persisted throughout the 48-hour incubation period
same,cell viability,[8],did not substantially affect cell viability
same,HIV RNA,"[9]; Figure 3C, 2.5 nM RMD, 7 days, one value per donor",1205 copies/mL and 20 copies/mL and 2949 copies/mL and 560 copies/mL and 341 copies/mL and 86 copies/mL and 137 copies/mL
same,donors with induced HIV RNA release,"[9]; resting CD4 T cells, 2.5 nM RMD continuous 6 days",6 of 8
same,"HIV RNA in culture supernatants, longitudinal samples","[9]; resting CD4 T cells, 7 days continuous RMD, high-responding patient, three longitudinal samples",robust and reproducible dose-dependent HIV RNA increase
same,longitudinal samples with concentration-dependent effect on viral expression,"[9]; resting CD4 T cells, 7 days continuous RMD, low-responding patient",2 of 3
same,IC50,human HDAC-11,0.407 nM
same,IC50,human HDAC-7,3400 nM
